Results published in US20240350510A1, “METHODS AND COMPOSITIONS FOR REDUCING TOLERANCE TO OPIOID […] IBOGAINE AND DERIVATIVES THEREOF” (DemeRx, Inc., priority 2014, published 2024).

Experiment: Effect of ibogaine on QT interval in treated patients
Assay type: in vivo, human
Conditions: stated in words only, no values
Excerpt: A prolonged QT interval is a marker of potential Torsades de Pointes, a serious arrhythmia that can result in death. For reasons that are not apparent, this prolongation increases in opioid addicted patients as compared to healthy individuals. […] It is expected that other compounds that share ibogaine's core structure will have a similar prolongation effect on QT interval. See, U.S. Provisional Patent Application No. 61/945,746 filed Feb. 27, 2014 entitled METHOD FOR ACUTE AND LONG-TERM TREATMENT OF DRUG ADDICTION, which application is incorporated by reference in its entirety.
The effect of ibogaine, ibogaine derivative, or a pharmaceutically acceptable salt and/or solvate thereof on QT interval is evaluated in substance-dependent participants in a randomized, placebo-controlled, double-blind trial. Patients are administered 60 mg or 120 mg of the compound and QT interval is measured.

CCC1CC2CC3c4[nH]c5ccc(OC)cc5c4CCN(C2)C13 (stereo not shown) [ibogaine]
prolongation of the treated patient's QT interval: dose dependent prolongation
